Measurements taken from US20090111828A1, “L-ALANINE DERIVATIVES” (ASTRAZENECA AB, priority 2005, published 2009).

What was measured:
[1] = target: T1, α5β1 integrin (Homo sapiens, UniProt P05556+P08648); experiment: In vitro binding assay: inhibition of binding of α5β1 integrin to fibronectin fragment Fn9-10 (Origen electrochemiluminescence); settings: human a5b1 purified from placenta; biotinylated Fn9-10 ligand
Description: The assay determined the ability of compounds to inhibit binding of a5 μl integrin to a cognate ligand, a fragment of human fibronectin. The assay used Origen technology (IGEN International) to measure the compound activity. Briefly, (α5β1 integrin was coated onto epoxy-paramagnetic beads (Dynal Biotech UK, Bromborough, Wirral, CH62 3QL, UK, Catalogue No 143.02) and biotinylated-fibronectin ligand was coupled to strepatividin labelled BV-Tag-NHS-Ester (BioVeris Corporation, Witney, Oxfordshire, OX28 4GE, UK, Catalogue No JSF396). The ruthenium-labelled BV-Tag emits a electrochemiluminescence signal upon stimulation which is detected by the Origen reader. Thus, interaction of integrin and ligand causes association of bead and tag and the resulting electrochemiluminescence signal reflects the level of integrin interaction with fibronectin.
12 μg of human a5 μl purified from placenta (Chemicon, Chandlers Ford, Hampshire, SO53 4NF, UK, Catalogue No CC1055-K) was coated onto surface-activated 3 mg of epoxy-paramagnetic beads in PBS and 1M ammonium sulfate following manufacturers instructions at 4° C. for 24 hours. Coated beads were then washed into Assay Buffer (25 mM Hepes, 150 mM NaCl, 1 mM MgCl, 1 mM MnCl, 0.1% Tween, pH7.4) to give a final concentration of 20 μg of α5β1/ml. Immediately prior to the assay, the beads were further diluted ×40 fold in Assay Buffer to give a concentration of 0.5 μg α5β1/ml.
A DNA fragment encoding the domains 9-10 (amino-acids 1325-1509) of human fibronectin (Swiss-Prot Acession No. P02751) was isolated from cDNA libraries using standard molecular biology and PCR cloning techniques. The cDNA fragment was sub-cloned into a pT73.3 expression vector containing a GST-epitope tag (developed at AstraZeneca; Bagnall et al., Protein Expression and Purification, 2003, 27: 1-11). Following expression in E. coli, the expressed protein, termed Fn9-10, was purified using the GST-tag using standard purification techniques. The recombinant Fn9-10 was subsequently biotinylated using a EZ-link Sulfo-NHS-LC-Biotinylation kit (Perbio Science UK Ltd., Cramlington, Northumberland, NE23 1WA, UK, Catalogue No. 21335) and made to give a final concentration of approximately 1 mg/ml. BV-Tag-NHS-Ester was labelled with streptavidin by incubation at room temperature following manufacturers instructions and buffer-exchanged into PBS to give a concentration of 0.5 mg/ml. […]
For the assay, […] of a5b1-bead suspension and 40 μl of the Fn9-10/BV-Tag preincubated solution were added to each well containing 20 μl of compound or control solution. Assay plates were then incubated at room temperature for a minimum of 6 hours before being analysed on the Origen plate reader. […]

[2] = target: T1, α5β1 integrin; experiment: In vitro cell adhesion assay: α5β1 integrin mediated adhesion of K562 cells to fibronectin fragment Fn9-10; format: cell-based; set-up: α5β1 integrin mediated adhesion of K562 cells; host or cells: K562 human erythroleukaemia cells; settings: K562 cells on Fn9-10 coated plates; 0.2 mM MnCl; read-out: b) Cell Adhesion Assay
From the text: The assay determined the ability of compounds to inhibit the α5β1 integrin mediated adhesion of K562 cells to the ligand, a fragment of human fibronectin. The human K562 erythroleukaemia cell line (LGC Promochem, Teddington, Middlesex, UK, Catalogue No. CCL-243) was routinely maintained in RPMI 1640 medium (Sigma-Aldrich Company Ltd, Gillingham, Dorset SP8 4XT, Catalogue No. R0883) containing 10% heat-inactivated foetal calf serum (PAA lab GmbH, Pasching, Austria Catalogue No. PAA-A15-043) and 1% glutamax-1 (Invitrogen Ltd. Paisley, UK Catalogue No. 35050-038) at 37° C. with 5% CO2 at densities between 1×10^5 and 1×10^6 cells/ml.
A DNA fragment encoding the domains 9-10 (amino-acids 1325-1509) of human fibronectin (Swiss-Prot Acession No. P02751) was isolated from cDNA libraries using standard molecular biology and PCR cloning techniques. The cDNA fragment was sub-cloned into a pT7#3.3 expression vector containing a GST-epitope tag (developed at AstraZeneca; Bagnall et al., Protein Expression and Purification, 2003, 27: 1-11) and the fragment termed Fn9-10. Following expression in E. coli, the expressed protein was purified using the GST-tag using standard purification techniques.
For adhesion assay, a 96-well flat bottomed plate (Greiner Bio one ltd., Gloucester GL10 3SX Catalogue No. 655101) was coated overnight at 4° C. with 100 μl of 20 μg/ml Fn9-10 ligand in Dulbecco's PBS (Gibco#14190-94). The plate was then washed twice with 200 μl of PBS and blocked with 100 μl of 3% BSA (SigmaA7888) in PBS for 1 hour at 37° C. The plates were then washed again 3 times with 200 μl of PBS and left empty.
Test compounds were prepared as 10 mM stock solutions in DMSO (Sigma-Aldrich Company Ltd, Gillingham, Dorset SP8 4XT Catalogue No. 154938) and serially diluted with HBSS (Hanks Buffered Salt solution (Gibco Catalogue No. 14170-088)/2% DMSO to give a range of test concentrations at twice required final concentration. Aliquots (50 μl) of each compound dilution were placed into each well of the Fn9-10 coated plates. Each plate also contained control wells: maximum adhesion signal was created using wells containing 50 μl HBSS/2% DMSO and minimum signal corresponding to no adhesion was created using wells containing 50 μl HBSS/2% DMSO/20 mM EDTA (Sigma Catalogue No. E7889).
The K562 cells were cultured to ˜1×10^6 cells/ml and each culture suspension pooled. Cells were centrifuged at 1200 rpm for 2 mins and the pellets washed with HBSS followed by HBSS/50 mM HEPES (Sigma Catalogue No. H0887). Cell pellets were pooled and resuspended in HBSS/0.4 mM manganese chloride/50 mM HEPES (MnCl; Sigma Catalogue No. M1787) to give a final concentration of 4×10^6 cells/ml.
The assay was initiated by the addition of 50 μl of cell suspension into each coated well (200,000 cells/well), thus resulting in final desired compound concentration and a final MnCl concentration of 0.2 mM. The plates were incubated for 45 minutes at 37° C. 5% CO2. After this time, the solution was flicked off as waste and the remaining cell layer carefully washed twice with 200 μl of PBS and then fixed with 200 μl of 100% ethanol for 30 minutes.
After fixation, the ethanol was flicked off to waste and 100 μl of 0.1% Crystal violet stain was added to each well and incubated at ambient temperature for 15 minutes. Excess stain was removed by rinsing ˜3 times under cold slow running water. The plates were blotted over tissue then solubilised by adding 50 μl of 1% Triton X100 (Sigma Catalogue No. T9284) and shaking at 500 rpm for 30 mins on plate shaker. Finally, 100 μl of deionised water was added to each well and the absorbance was determined at 590 nm on a spectrophotometer. The minimum value was subtracted from all values and the absorbance signal was plotted against compound concentration to generate IC50 data.

T1 sequence (P08648 42-894 limits assumed): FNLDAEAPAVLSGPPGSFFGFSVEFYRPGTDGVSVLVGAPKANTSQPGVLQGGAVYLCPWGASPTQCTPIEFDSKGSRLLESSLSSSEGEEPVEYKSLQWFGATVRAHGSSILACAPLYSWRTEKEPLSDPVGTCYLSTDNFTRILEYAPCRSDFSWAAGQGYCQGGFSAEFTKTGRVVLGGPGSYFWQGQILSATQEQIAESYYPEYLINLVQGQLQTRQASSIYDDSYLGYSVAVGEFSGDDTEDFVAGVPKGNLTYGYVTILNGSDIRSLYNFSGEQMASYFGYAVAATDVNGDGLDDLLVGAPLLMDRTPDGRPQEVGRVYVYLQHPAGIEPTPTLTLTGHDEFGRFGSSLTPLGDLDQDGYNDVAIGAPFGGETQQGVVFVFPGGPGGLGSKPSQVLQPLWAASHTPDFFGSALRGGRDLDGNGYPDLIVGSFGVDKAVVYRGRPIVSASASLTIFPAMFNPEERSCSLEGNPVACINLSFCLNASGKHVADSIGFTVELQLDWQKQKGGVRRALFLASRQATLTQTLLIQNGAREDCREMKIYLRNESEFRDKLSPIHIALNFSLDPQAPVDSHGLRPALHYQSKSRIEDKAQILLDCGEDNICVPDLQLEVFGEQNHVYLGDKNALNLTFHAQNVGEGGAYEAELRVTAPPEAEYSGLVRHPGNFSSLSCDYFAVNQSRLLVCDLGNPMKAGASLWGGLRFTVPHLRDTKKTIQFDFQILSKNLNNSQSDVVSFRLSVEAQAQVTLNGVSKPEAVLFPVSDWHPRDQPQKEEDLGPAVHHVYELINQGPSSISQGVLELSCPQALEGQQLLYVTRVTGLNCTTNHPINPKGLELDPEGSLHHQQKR
T1 sequence (P08648 895-1049 partner limits assumed): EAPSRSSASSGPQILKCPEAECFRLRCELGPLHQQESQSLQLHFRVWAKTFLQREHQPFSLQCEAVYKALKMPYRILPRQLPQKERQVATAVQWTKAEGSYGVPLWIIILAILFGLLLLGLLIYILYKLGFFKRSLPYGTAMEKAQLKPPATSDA
T1 sequence (P05556 21-798): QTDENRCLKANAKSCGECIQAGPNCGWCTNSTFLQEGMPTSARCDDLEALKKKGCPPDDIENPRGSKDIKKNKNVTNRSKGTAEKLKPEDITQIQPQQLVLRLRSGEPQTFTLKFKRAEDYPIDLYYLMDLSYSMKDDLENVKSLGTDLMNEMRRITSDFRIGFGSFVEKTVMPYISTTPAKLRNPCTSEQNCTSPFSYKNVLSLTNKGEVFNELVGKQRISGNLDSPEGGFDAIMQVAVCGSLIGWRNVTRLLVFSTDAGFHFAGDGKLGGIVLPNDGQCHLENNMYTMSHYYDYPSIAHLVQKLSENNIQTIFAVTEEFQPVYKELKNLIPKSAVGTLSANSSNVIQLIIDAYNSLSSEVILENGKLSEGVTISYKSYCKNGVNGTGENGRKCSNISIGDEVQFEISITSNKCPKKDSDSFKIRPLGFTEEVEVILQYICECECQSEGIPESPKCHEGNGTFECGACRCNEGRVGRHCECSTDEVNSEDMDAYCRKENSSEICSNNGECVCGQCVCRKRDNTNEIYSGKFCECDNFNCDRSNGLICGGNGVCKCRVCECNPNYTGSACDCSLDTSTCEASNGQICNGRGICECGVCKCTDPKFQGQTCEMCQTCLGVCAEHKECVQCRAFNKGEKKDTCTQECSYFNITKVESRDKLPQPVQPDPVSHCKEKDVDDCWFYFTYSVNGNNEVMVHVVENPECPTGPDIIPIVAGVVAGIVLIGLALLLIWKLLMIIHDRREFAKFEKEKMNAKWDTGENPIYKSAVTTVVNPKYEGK

Compound `CCCS(=O)(=O)N1CC=C(c2ccc(C[C@H](NC(=O)c3c(Cl)cccc3Cl)C(=O)O)nc2)CC1` has an IC50 [1] of 13.9 µM and an IC50 [2] of 7 µM.

`CS(=O)(=O)N1CC=C(c2ccc(C[C@H](NC(=O)c3c(Cl)cccc3Cl)C(=O)O)nc2)CC1` showed an IC50 [1] of 24.7 µM and an IC50 [2] of 70.5 µM.

`O=C(N[C@@H](Cc1ccc(C2=CCN(Cc3ccc(F)cc3)CC2)cn1)C(=O)O)c1c(Cl)cccc1Cl` was tested, and the IC50 [1] was 6 µM and the IC50 [2] was 13.2 µM.

For `O=C(N[C@@H](Cc1ccc(N2CCN(S(=O)(=O)c3ccccc3)CC2)cn1)C(=O)O)c1c(Cl)cccc1Cl` [N-(2,6-dichlorobenzoyl)-3-{5-[4-(phenylsulfonyl)piperazin-1-yl]pyridin-2-yl}-L-alanine], the IC50 [2] was at least 100 µM.

In the case of `O=C(N[C@@H](Cc1ccc(C2=CCN(C(=O)c3cccc(F)c3)CC2)cn1)C(=O)O)c1c(Cl)cccc1Cl`, the IC50 [1] is reported as 7.2 µM and the IC50 [2] is reported as 48 µM.

With `CC(=O)NCC(=O)N1CC=C(c2ccc(C[C@H](NC(=O)c3c(Cl)cccc3Cl)C(=O)O)nc2)CC1` [3-[1′-(N-acetylglycyl)-1′,2′,3′,6′-tetrahydro-3,4′-bipyridin-6-yl]-N-(2,6-dichlorobenzoyl)-L-alanine] the IC50 [2] was at least 100 µM.
